Legend:
Assay type in all cases: in vivo
[1] = system: laser-induced glaucomatous eyes in cynomolgus monkeys; assay: Intraocular pressure after single topical dose in glaucomatous monkey eyes; details: for Intraocular Pressure (treated - baseline) (mean ± SEM) / relative activity in decreasing IOP among the compounds tested: glaucomatous monkey eyes; for maximum reduction in IOP (mean SEM) / time for which IOP was reduced (p<0.05): single 25 μl dose of 0.1 percent, laser-induced glaucomatous eyes, cynomolgus monkeys; for relative activity in decreasing IOP among the compounds tested: 0.1 percent; for maximum reduction in IOP (mean±SEM) as compared to baseline / time for which IOP was reduced (p<0.005): single 25 μl dose
Method: Experiments were performed to evaluate the effects of single dose administration of 8-iso PGE2 an IOP in normal (“N”) and glaucomatous (“G”) monkey eyes, and to determine the mechanism by which 8-iso PGE2 alters IOP in N monkey eyes, when applied topically. A single 25 μl dose study was performed in 6 N and 8 G monkeys. IOP and pupil sizes were measured before and at 0 hr, 0.5 hr and then hourly for a total of 6 hrs after 0.05% or 0.1% drug concentrations were administered. Tonographic outflow facility (“C”) and fluorophotometric aqueous humor flow (F) were determined in 6 N monkeys before and after unilateral application of 25 μl of 0.1% 8-iso PGE2. In 8 G monkey eyes, 8-isoPGE2 reduced IOP (p<0.005) up to 2 hrs or 5 hrs following administration of the 0.05% or 0.1% concentration, respectively. The maximum reduction in IOP was 4.6±0.8 (mean±SEM)mm Hg (0.05%) and 6.6±0.8 mm Hg (0.1%), as compared to baseline measurements. After topical application of 8-iso PGE2 the IOP was lower (p<0.01) in the treated eyes of 6 N monkeys for 4 hrs, with a maximum difference of 3.2±0.2 mmHg, as compared to the fellow contralateral control eyes. The pupil size was smaller (p<0.01) for 4 hrs, up to 1.0±0.2 mm. Compared with vehicle-treated contralateral control eyes, C was greater (p<0.005) by 48% at 2 hr after a single dose of 0.1% 8-iso PGE2. F was unchanged (p<0.10) over a period of 4 hrs after drug administration. […] Because of the individual variability in laser-induced glaucomatous monkey eyes, the IOP and facility measurements are expressed in the table as ratios (value of the drug-treated eye+the value of the vehicle-treated eye). The ratios were calculated from the values of the same glaucomatous monkey eye determined immediately prior to administration of the drug or the vehicle (time 0 hrs.), and the values at 2 hours after administration of the drug or vehicle. […] Thus the mechanism of lowering IOP by 8-iso PGE2 in both normal and glaucomatous eyes is primarily due to an increase in aqueous humor trabecular outflow. IOP was measured one hour before and at intervals up to six hours after a single dose of 8-iso PGE, (the 13, 14 dihydro derivative of 8-iso PGE2), 8-iso PGE2, or 8-iso PGF2α in laser-induced glaucomatous eyes in cynomolgus monkeys (wherein only one eye is rendered glaucomatous and the other serves as a control). Following one day of baseline IOP measurement, a single 25 μl dose of either (i) 0.1 percent 8-iso PGE1, or (ii) 0.1 percent 8-iso PGE2, or (iii) 0.1 percent 8-iso PGF2α, was topically applied to the glaucomatous eye in groups of 4 or 8 monkeys. […] The maximum reduction in IOP was 5.3±0.8 (mean SEM) mm Hg at 2 hours after dosing 8-iso PGE2 (0.1 percent) reduced IOP (p<0.05) for 5 hours with a maximum reduction in IOP of 6.6±0.8 mm Hg at 2 hours after dosing (n=8). […] Based on these studies, of the compounds tested, 8-iso PGE2 appears to have the greatest and 8-iso PGF2α, the least activity in decreasing IOP in glaucomatous monkey eyes.

normal monkey eyes [2] = assay: Intraocular pressure after single topical dose in normal monkey eyes
Method: Experiments were performed to evaluate the effects of single dose administration of 8-iso PGE2 an IOP in normal (“N”) and glaucomatous (“G”) monkey eyes, and to determine the mechanism by which 8-iso PGE2 alters IOP in N monkey eyes, when applied topically. A single 25 μl dose study was performed in 6 N and 8 G monkeys. […] Tonographic outflow facility (“C”) and fluorophotometric aqueous humor flow (F) were determined in 6 N monkeys before and after unilateral application of 25 μl of 0.1% 8-iso PGE2. In 8 G monkey eyes, 8-isoPGE2 reduced IOP (p<0.005) up to 2 hrs or 5 hrs following administration of the 0.05% or 0.1% concentration, respectively. The maximum reduction in IOP was 4.6±0.8 (mean±SEM)mm Hg (0.05%) and 6.6±0.8 mm Hg (0.1%), as compared to baseline measurements. After topical application of 8-iso PGE2 the IOP was lower (p<0.01) in the treated eyes of 6 N monkeys for 4 hrs, with a maximum difference of 3.2±0.2 mmHg, as compared to the fellow contralateral control eyes. The pupil size was smaller (p<0.01) for 4 hrs, up to 1.0±0.2 mm. Compared with vehicle-treated contralateral control eyes, C was greater (p<0.005) by 48% at 2 hr after a single dose of 0.1% 8-iso PGE2. F was unchanged (p<0.10) over a period of 4 hrs after drug administration.

normal monkey eyes [3] = assay: Pupil size after topical application in normal monkeys
Method: (§1) Experiments were performed to evaluate the effects of single dose administration of 8-iso PGE2 an IOP in normal (“N”) and glaucomatous (“G”) monkey eyes, and to determine the mechanism by which 8-iso PGE2 alters IOP in N monkey eyes, when applied topically. A single 25 μl dose study was performed in 6 N and 8 G monkeys. IOP and pupil sizes were measured before and at 0 hr, 0.5 hr and then hourly for a total of 6 hrs after 0.05% or 0.1% drug concentrations were administered. Tonographic outflow facility (“C”) and fluorophotometric aqueous humor flow (F) were determined in 6 N monkeys before and after unilateral application of 25 μl of 0.1% 8-iso PGE2. In 8 G monkey eyes, 8-isoPGE2 reduced IOP (p<0.005) up to 2 hrs or 5 hrs following administration of the 0.05% or 0.1% concentration, respectively. The maximum reduction in IOP was 4.6±0.8 (mean±SEM)mm Hg (0.05%) and 6.6±0.8 mm Hg (0.1%), as compared to baseline measurements. After topical application of 8-iso PGE2 the IOP was lower (p<0.01) in the treated eyes of 6 N monkeys for 4 hrs, with a maximum difference of 3.2±0.2 mmHg, as compared to the fellow contralateral control eyes. The pupil size was smaller (p<0.01) for 4 hrs, up to 1.0±0.2 mm. Compared with vehicle-treated contralateral control eyes, C was greater (p<0.005) by 48% at 2 hr after a single dose of 0.1% 8-iso PGE2. […]

normal monkey eyes [4] = assay: Tonographic outflow facility (C) in normal monkeys
Method: Experiments were performed to evaluate the effects of single dose administration of 8-iso PGE2 an IOP in normal (“N”) and glaucomatous (“G”) monkey eyes, and to determine the mechanism by which 8-iso PGE2 alters IOP in N monkey eyes, when applied topically. A single 25 μl dose study was performed in 6 N and 8 G monkeys. […] In 8 G monkey eyes, 8-isoPGE2 reduced IOP (p<0.005) up to 2 hrs or 5 hrs following administration of the 0.05% or 0.1% concentration, respectively. The maximum reduction in IOP was 4.6±0.8 (mean±SEM)mm Hg (0.05%) and 6.6±0.8 mm Hg (0.1%), as compared to baseline measurements. After topical application of 8-iso PGE2 the IOP was lower (p<0.01) in the treated eyes of 6 N monkeys for 4 hrs, with a maximum difference of 3.2±0.2 mmHg, as compared to the fellow contralateral control eyes. The pupil size was smaller (p<0.01) for 4 hrs, up to 1.0±0.2 mm. […] F was unchanged (p<0.10) over a period of 4 hrs after drug administration.

normal monkey eyes [5] = assay: Fluorophotometric aqueous humor flow (F) in normal monkeys; details: 6 normal monkeys, over 4 hrs after 25 μl of 0.1%
Method: as §1

monkey eyes = assay: Ocular side effects after topical dosing in monkey eyes; details: eyes treated with the 0.1% concentration
Method: as §1

glaucomatous monkey eyes = assay: Outflow facility in glaucomatous monkey eyes; details: 0.1%, 8 glaucomatous monkey eyes
Method: Because of the individual variability in laser-induced glaucomatous monkey eyes, the IOP and facility measurements are expressed in the table as ratios (value of the drug-treated eye+the value of the vehicle-treated eye). The ratios were calculated from the values of the same glaucomatous monkey eye determined immediately prior to administration of the drug or the vehicle (time 0 hrs.), and the values at 2 hours after administration of the drug or vehicle. […] Thus the mechanism of lowering IOP by 8-iso PGE2 in both normal and glaucomatous eyes is primarily due to an increase in aqueous humor trabecular outflow.

[6] = 0.1%, 2 hours after treatment, 6 normal monkeys (Table 1A)
[7] = 0.005%, 6 normal monkeys, 1 hour after treatment
[8] = 0.005%, 1 hour after treatment, 6 normal monkeys (Table 1B)

CCCCC[C@H](O)/C=C/[C@H]1[C@H](O)CC(=O)[C@H]1CCCCCCC(=O)O [8-iso PGE1, 8-iso, 5,6 dihydro prostaglandin E2]
Intraocular Pressure (treated - baseline) (mean ± SEM) ([1]; 0.1%, 1 hr): −3.3 ± 1.3 mm Hg | Intraocular Pressure (treated - baseline) (mean ± SEM) ([1]; 0.1%, 2 hr): −5.3 ± 0.8 mm Hg | Intraocular Pressure (treated - baseline) (mean ± SEM) ([1]; 0.1%, 4 hr): −2.3 ± 0.5 mm Hg | Intraocular Pressure (treated - baseline) (mean ± SEM) ([1]; 0.1%, 6 hr): −1.3 ± 0.9 mm Hg | maximum reduction in IOP (mean SEM) [1]: 5.3±0.8 mm Hg | time for which IOP was reduced (p<0.05) [1]: up to four

CCCCC[C@H](O)/C=C/[C@H]1[C@H](O)CC(=O)[C@H]1C/C=C\CCCC(=O)O [8-iso PGE2, prosta-5,13-dien-1-oic acid, 11,15-dihydroxy-9-oxo, (5Z, 8β, 11α, 13E,15S)]
Intraocular Pressure response ratio (drug-treated/vehicle-treated) ([1]; 0.1%, 8 glaucomatous monkey eyes, 2 hr): 0.843 ± | % change by drug in intraocular pressure (decrease) ([1]; 0.1%, 8 glaucomatous monkey eyes, 2 hr vs 0 hr): 13.8% | Intraocular Pressure (treated - baseline) (mean ± SEM) ([1]; 0.1%, 1 hr): −4.5 ± 0.9 mm Hg | Intraocular Pressure (treated - baseline) (mean ± SEM) ([1]; 0.1%, 2 hr): −6.6 ± 0.8 mm Hg | Intraocular Pressure (treated - baseline) (mean ± SEM) ([1]; 0.1%, 4 hr): −2.9 ± 0.6 mm Hg | Intraocular Pressure (treated - baseline) (mean ± SEM) ([1]; 0.1%, 6 hr): −1.2 ± 1.2 mm Hg | relative activity in decreasing IOP among the compounds tested [1]: greatest | maximum reduction in IOP (mean±SEM) as compared to baseline ([1]; 8 glaucomatous monkey eyes, 0.05%): 4.6±0.8 mm Hg | time for which IOP was reduced (p<0.005) ([1]; 8 glaucomatous monkey eyes, 0.05% concentration): up to 2 hrs | maximum reduction in IOP (mean±SEM) as compared to baseline ([1]; 8 glaucomatous monkey eyes, 0.1%): 6.6±0.8 mm Hg | time for which IOP was reduced (p<0.005) ([1]; 8 glaucomatous monkey eyes, 0.1% concentration): ≤ 5 h | maximum reduction in IOP (mean SEM) [1]: 6.6±0.8 mm Hg | time for which IOP was reduced (p<0.05) [1]: 5 h | Intraocular Pressure Mean ± SEM, treated eyes (drug) (normal monkey eyes [2]; 0.1%, 6 normal monkeys, 2 hours after treatment): 13.0 ± 0.7 mmHg | lowering of IOP in normal monkey eye (normal monkey eyes [2]; [6]): 20.3% | maximum difference in IOP as compared to fellow contralateral control eyes (normal monkey eyes [2]; 6 normal monkeys, topical application): 3.2±0.2 mmHg | time for which IOP was lower (p<0.01) in treated eyes (normal monkey eyes [2]; 6 normal monkeys, topical application, vs fellow contralateral control eyes): 4 h | reduction in pupil size (normal monkey eyes [3]): up to 1.0±0.2 mm | time for which pupil size was smaller (p<0.01) (normal monkey eyes [3]): 4 h | increase of outflow facility in normal monkey eye (normal monkey eyes [4]; [6]): 43.1% | outflow facility C greater compared with vehicle-treated contralateral control eyes (p<0.005) (normal monkey eyes [4]; 6 normal monkeys, 2 hr after single 25 μl dose of 0.1%): 48% | aqueous humor flow F change (normal monkey eyes [5]): unchanged | ocular side effects (monkey eyes): Mild eyelid edema, conjunctival edema, hyperemia, and discharge appeared in some eyes | Outflow facility response ratio (drug-treated/vehicle treated) (glaucomatous monkey eyes; 2 hr): 1.445 ± | % change by drug in outflow facility (glaucomatous monkey eyes; 2 hr vs 0 hr): 38.8%

CCCCC[C@H](O)/C=C/[C@@H]1[C@H](C/C=C\CCCC(=O)O)[C@@H](O)C[C@H]1O [8-iso PGF2α, prosta-5,13-dien-1-oic acid, 9, 11, 15-trihydroxy-, (5Z, 8β, 9α, 11α, 13E, 15S)-]
Intraocular Pressure (treated - baseline) (mean ± SEM) ([1]; 0.1%, 1 hr): −3.3 ± 0.8 mm Hg | Intraocular Pressure (treated - baseline) (mean ± SEM) ([1]; 0.1%, 2 hr): −1.8 ± 1.1 mm Hg | Intraocular Pressure (treated - baseline) (mean ± SEM) ([1]; 0.1%, 4 hr): −0.8 ± 1.7 mm Hg | Intraocular Pressure (treated - baseline) (mean ± SEM) ([1]; 0.1%, 6 hr): 0.3 ± 0.5 mm Hg | relative activity in decreasing IOP among the compounds tested [1]: least | maximum reduction in IOP (mean SEM) [1]: 3.3±0.9 mm Hg | time for which IOP was reduced (p<0.05) [1]: only at 1 hour

CC(C)OC(=O)CCC/C=C\C[C@@H]1[C@@H](CC[C@@H](O)CCc2ccccc2)[C@H](O)C[C@@H]1O [latanoprost, reference compound]
Intraocular Pressure Mean ± SEM, treated eyes (drug) (normal monkey eyes [2]; [7]): 13.2 ± 0.7 mmHg | lowering of IOP in normal monkey eye (normal monkey eyes [2]; [8]): 10.8% | Outflow Facility Mean ± SEM, treated eyes (drug) (normal monkey eyes [4]; [7]): 0.76 ± 0.08 μl/min/mmHg | effect on outflow facility in normal monkey eye (normal monkey eyes [4]; [8]): not significant effect
